Where two headings read alike, the source gives them in different places.
Columns and labels:
[1] = Plasma pharmacokinetics (LC–MS/MS, non-compartmental analysis); type: in vivo, Japanese patients; conditions: for Cmax / Tmax / AUC(0-inf) / AUC(0-t): human, plasma, oral; for Cmax: read-out: Cmax, Median; for AUC(0-inf): read-out: AUCinf, Median
Description: The PK parameters were determined by non-compartmental analysis using Phoenix WinNonlin 6.2® (Pharsight, Mountain View, CA).

[2] = tested on: S6 phosphorylation (pS6); assay: pS6 in normal skin samples (PD biomarker); type: in vivo, Japanese patients; conditions: 400 mg bid; 3/6 patients; baseline vs end of Cycle 1
[3] = all formulations and dose levels tested (≥ 100 mg), qd; Western oncology patients; cited from earlier work

In the case of `Cn1c(=O)n(-c2ccc(C(C)(C)C#N)cc2)c2c3cc(-c4cnc5ccccc5c4)ccc3ncc21` [BEZ235], the Cmax ([1]; 800 mg, Cycle 1 Day 28, 800 mg qd, n = 3) is reported as 1980 ng/mL, the Tmax ([1]; 800 mg, Cycle 1 Day 28, 800 mg qd, n = 3, read-out: Tmax, Median) is reported as 2 h and the AUC(0-inf) ([1]; 1000 mg, Cycle 1 Day 1, 1000 mg qd, n = 3) is reported as 1410 ng·h/mL. For the same compound, the AUC(0-t) ([1]; 1000 mg, Cycle 1 Day 1, 1000 mg qd, n = 4, read-out: AUC0 − 24, Median) was 4330 ng·h/mL, the AUC(0-t) ([1]; 1000 mg, Cycle 1 Day 1, 1000 mg qd, n = 6, read-out: AUClast, Median) was 4490 ng·h/mL and the Cmax ([1]; 1000 mg, Cycle 1 Day 1, 1000 mg qd, n = 6) was 472 ng/mL. For the same compound, the Tmax ([1]; 1000 mg, Cycle 1 Day 1, 1000 mg qd, n = 6, read-out: Tmax, Median) was 5 h, the AUC(0-t) ([1]; 1000 mg, Cycle 1 Day 8, 1000 mg qd, n = 3, read-out: AUC0 − 24, Median) was 8260 ng·h/mL and the AUC(0-inf) ([1]; 1000 mg, Cycle 1 Day 8, 1000 mg qd, n = 3) was 8300 ng·h/mL. The AUC(0-t) ([1]; 1000 mg, Cycle 1 Day 8, 1000 mg qd, n = 7, read-out: AUClast, Median) was 9350 ng·h/mL, the Cmax ([1]; 1000 mg, Cycle 1 Day 8, 1000 mg qd, n = 7) was 912 ng/mL and the Tmax ([1]; 1000 mg, Cycle 1 Day 8, 1000 mg qd, n = 7, read-out: Tmax, Median) was 6 h. The AUC(0-t) ([1]; 1000 mg, Cycle 1 Day 28, 1000 mg qd, n = 2, read-out: AUC0 − 24, Median) was 3740 ng·h/mL, the AUC(0-inf) ([1]; 1000 mg, Cycle 1 Day 28, 1000 mg qd, n = 2) was 3770 ng·h/mL and the AUC(0-t) ([1]; 1000 mg, Cycle 1 Day 28, 1000 mg qd, n = 4, read-out: AUClast, Median) was 4800 ng·h/mL. For the same compound, the Cmax ([1]; 1000 mg, Cycle 1 Day 28, 1000 mg qd, n = 4) was 548 ng/mL, the Tmax ([1]; 1000 mg, Cycle 1 Day 28, 1000 mg qd, n = 4, read-out: Tmax, Median) was 4 h and the AUC(0-inf) ([1]; 1200 mg, Cycle 1 Day 1, 1200 mg qd, n = 1) was 2290 ng·h/mL. For the same compound, the AUC(0-t) ([1]; 1200 mg, Cycle 1 Day 1, 1200 mg qd, n = 3, read-out: AUC0 − 24, Median) was 6420 ng·h/mL, the AUC(0-t) ([1]; 1200 mg, Cycle 1 Day 1, 1200 mg qd, n = 5, read-out: AUClast, Median) was 6420 ng·h/mL and the Cmax ([1]; 1200 mg, Cycle 1 Day 1, 1200 mg qd, n = 5) was 403 ng/mL. It also gave a Tmax ([1]; 1200 mg, Cycle 1 Day 1, 1200 mg qd, n = 5, read-out: Tmax, Median) of 6 h, an AUC(0-inf) ([1]; 1200 mg, Cycle 1 Day 8, 1200 mg qd, n = 1) of 14400 ng·h/mL and an AUC(0-t) ([1]; 1200 mg, Cycle 1 Day 8, 1200 mg qd, n = 4, read-out: AUC0 − 24, Median) of 34200 ng·h/mL. For the same compound, the AUC(0-t) ([1]; 1200 mg, Cycle 1 Day 8, 1200 mg qd, n = 4, read-out: AUClast, Median) was 33500 ng·h/mL, the Cmax ([1]; 1200 mg, Cycle 1 Day 8, 1200 mg qd, n = 4) was 1810 ng/mL and the Tmax ([1]; 1200 mg, Cycle 1 Day 8, 1200 mg qd, n = 4, read-out: Tmax, Median) was 4 h. The AUC(0-t) ([1]; 1200 mg, Cycle 1 Day 28, 1200 mg qd, n = 1, read-out: AUC0 − 24, Median) was 43400 ng·h/mL, the AUC(0-t) ([1]; 1200 mg, Cycle 1 Day 28, 1200 mg qd, n = 2, read-out: AUClast, Median) was 37100 ng·h/mL and the Cmax ([1]; 1200 mg, Cycle 1 Day 28, 1200 mg qd, n = 2) was 2170 ng/mL. It also gave a Tmax ([1]; 1200 mg, Cycle 1 Day 28, 1200 mg qd, n = 2, read-out: Tmax, Median) of 5.9 h, an AUC(0-inf) ([1]; 1400 mg, Cycle 1 Day 1, 1400 mg qd, n = 1) of 1290 ng·h/mL and an AUC(0-t) ([1]; 1400 mg, Cycle 1 Day 1, 1400 mg qd, n = 2, read-out: AUC0 − 24, Median) of 13700 ng·h/mL. The AUC(0-t) ([1]; 1400 mg, Cycle 1 Day 1, 1400 mg qd, n = 5, read-out: AUClast, Median) was 10200 ng·h/mL, the Cmax ([1]; 1400 mg, Cycle 1 Day 1, 1400 mg qd, n = 5) was 733 ng/mL and the Tmax ([1]; 1400 mg, Cycle 1 Day 1, 1400 mg qd, n = 5, read-out: Tmax, Median) was 8 h. It also gave an AUC(0-t) ([1]; 1400 mg, Cycle 1 Day 8, 1400 mg qd, n = 3, read-out: AUC0 − 24, Median) of 36400 ng·h/mL, an AUC(0-t) ([1]; 1400 mg, Cycle 1 Day 8, 1400 mg qd, n = 5, read-out: AUClast, Median) of 35900 ng·h/mL and a Cmax ([1]; 1400 mg, Cycle 1 Day 8, 1400 mg qd, n = 5) of 2480 ng/mL. It also gave a Tmax ([1]; 1400 mg, Cycle 1 Day 8, 1400 mg qd, n = 5, read-out: Tmax, Median) of 4 h, an AUC(0-inf) ([1]; 1400 mg, Cycle 1 Day 28, 1400 mg qd, n = 3) of 30700 ng·h/mL and an AUC(0-t) ([1]; 1400 mg, Cycle 1 Day 28, 1400 mg qd, n = 4, read-out: AUC0 − 24, Median) of 18300 ng·h/mL. The AUC(0-t) ([1]; 1400 mg, Cycle 1 Day 28, 1400 mg qd, n = 4, read-out: AUClast, Median) was 18300 ng·h/mL, the Cmax ([1]; 1400 mg, Cycle 1 Day 28, 1400 mg qd, n = 4) was 1510 ng/mL and the Tmax ([1]; 1400 mg, Cycle 1 Day 28, 1400 mg qd, n = 4, read-out: Tmax, Median) was 4 h. For the same compound, the Tmax ([1]; across all dose levels and dosing schedules, Day 1, Day 8, Day 28 of Cycle 1, read-out: Median Tmax) was ~4 h, the Tmax ([1]; all dose levels and dosing schedules, read-out: individual Tmax range) was 1 to 24 h and the “PK exposures on Day 8 versus Day 1” value ([1]; qd and bid regimens, Cycle 1) was “at least threefold higher”. The “samples with reduction of pS6 in normal skin” value [2] was 50% and the bioavailability [3] was “low bioavailability”.

Reference: article PMC6394493 (Cancer Chemotherapy and Pharmacology, 2018)
